Source: US20250381110A1, “SKIN CARE COMPOSITION AND METHOD OF USING THE SAME” (THE PROCTER & GAMBLE COMPANY, priority 2024, published 2025)
Where a name gives a salt, the structure may show the parent alone.

System: p62-dependent mitophagy
Assay: Luciferase-p62 assay (Fluc-p62 clearance) in mouse embryonic fibroblasts
Type: cell-based
Settings: for Mean Luminescence: Luciferase-p62 assay, mouse embryonic fibroblasts (MEFs), compounds at 10 μM; for % Activity over baseline: percentage of Luciferase-p62 clearance relative to baseline (mean luminescence in the absence of doxycycline induction); for % Activity over baseline / % Activity relative to Rapamycin: MEFs, 10 μM; for % Activity relative to Rapamycin: percentage of activity relative to rapamycin tested in the same experiment at the same concentration
In short: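 MEFs with doxycycline-inducible Fluc-p62; after induction, doxycycline removed and cells treated 48 h with compounds at 10 μM. Fluc-p62 clearance, taken as mitophagy, read by ONE-Glo+Tox luciferase with viability. Vehicle (DMSO) as negative control; activity also expressed relative to rapamycin.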

Row | Compound | Mean Luminescence | % Activity over baseline [%] | % Activity relative to Rapamycin [%]
1 | COc1cc(C(C)=O)ccc1O [Apocynin] | 973.30 | 39.85 | 71.80
2 | Nc1nc(N)nc(N)n1 [Melamine] | 960.76 | 40.62 | 73.19
3 | CC(C)=CCC[C@](C)(O[C@@H]1O[C@H](CO)[C@@H](O)[C@H](O)[C@H]1O)[C@H]1CC[C@]2(C)[C@@H]1[C@H](O)C[C@@H]1[C@@]3(C)CC[C@H](O)C(C)(C)[C@@H]3[C@@H](O[C@@H]3O[C@H](CO)[C@@H](O)[C@H](O)[C@H]3O)C[C@]12C [Ginsenoside Rg1] | 947.81 | 41.42 | 74.64
4 | C[C@]12CC[C@@H]3c4ccc(OC(=O)c5ccccc5)cc4CC[C@H]3[C@@H]1CC[C@@H]2O [Estradiol Benzoate] | 970.65 | 40.01 | 72.09
5 | CN1CCN2c3ccccc3Cc3ccccc3C2C1 (stereo not drawn) [Mianserin HCl] | 960.23 | 40.66 | 73.25
6 | Nc1ncnc2c1ncn2[C@@H]1O[C@H](COP(=O)(O)O)[C@@H](O)[C@H]1O [Adenosine 5-monophosphate] | 890.00 | 45.00 | 81.07
7 | CCN(CC)c1ccc(/C=N/NC(=O)c2ccc(O)cc2)cc1 [DY131] | 878.41 | 45.71 | 82.36
8 | C/C=C1/[C@H](O[C@@H]2O[C@H](CO)[C@@H](O)[C@H](O)[C@H]2O)OC=C(C(=O)OC)[C@H]1CC(=O)OCCc1ccc(O)c(O)c1 [Oleuropein] | 843.32 | 47.88 | 86.27
9 | CC1=C(/C=C/C(C)=C/C=C/C(C)=C/C=O)C(C)(C)CCC1 [all-trans Retinal] | 967.12 | 40.23 | 72.49
10 | Clc1ccc(C(Cn2ccnc2)OCc2ccsc2Cl)c(Cl)c1 (stereo not drawn) [Tioconazole] | 537.96 | 66.75 | 120.27
11 | COc1ccc(CC(=O)O)cc1 [4-Methoxyphenylacetic acid] | 929.33 | 42.57 | 76.69
12 | O=c1cc[nH]c(=O)[nH]1 [Uracil] | 927.30 | 42.69 | 76.92
13 | Oc1ccc(OC2CCCCO2)cc1 (stereo not drawn) [Deoxyarbutin] | 653.14 | 59.64 | 107.45
14 | COc1c(C)c2c(c(O)c1C/C=C(\C)CCC(=O)O)C(=O)OC2 [Mycophenolic acid] | 821.72 | 49.22 | 88.68
15 | O=C(O)c1cc(O)c(O)c(O)c1 [Gallic acid] | 898.71 | 44.46 | 80.10
16 | CO[C@@]12[C@H](COC(N)=O)C3=C(C(=O)C(C)=C(N)C3=O)N1C[C@@H]1N[C@@H]12 [Mitomycin C] | 867.02 | 46.42 | 83.63
17 | C=CCc1ccc(O)c(-c2cc(CC=C)ccc2O)c1 [Magnolol] | 950.75 | 41.24 | 74.31
18 | Bleomycin Sulfate | 615.38 | 61.97 | 111.65
19 | O=C1O[C@H]([C@@H](O)CO)C(O)=C1O [Vitamin C] | 962.07 | 40.54 | 73.05

Row | Compound | Mean Luminescence | % Activity over baseline [%] | % Activity relative to Rapamycin [%]
20 | O=C1C=CC(=O)C=C1 [1,4-Benzoquinone] | 422.02 | 73.92 | 133.18
21 | Oc1ccccc1O [Pyrocatechol] | 906.35 | 43.99 | 79.25
22 | Oc1c(Cl)cc(Cl)c2cccnc12 [Chloroxine] | 272.45 | 83.16 | 149.84
23 | C=C(CC(=O)O)C(=O)O [Itaconic acid] | 640.97 | 60.39 | 108.80
24 | CO[C@]12C[C@@H](COC(=O)c3cncc(Br)c3)CN(C)[C@@H]1Cc1cn(C)c3cccc2c13 [Nicergoline] | 764.49 | 52.75 | 95.05
25 | Cc1cnc(C(=O)O)c[n+]1[O-] [Acipimox] | 922.85 | 42.97 | 77.42
26 | Nc1nc2c(ncn2[C@@H]2O[C@H](COP(=O)([O-])[O-])[C@@H](O)[C@H]2O)c(=O)[nH]1.[Na+].[Na+] [Guanosine 5′-monophosphate (sodium salt)] | 977.65 | 39.58 | 71.31
27 | CCCCC(=O)O[C@H]1CC[C@H]2[C@@H]3CCc4cc(O)ccc4[C@H]3CC[C@]12C [Estradiol valerate] | 924.65 | 42.86 | 77.22
28 | Cc1cnc(C)cn1 [2,5-Dimethyl pyrazine] | 842.32 | 47.94 | 86.38
29 | COc1cc(CNC(=O)CCCC/C=C/C(C)C)ccc1O [Capsaicin] | 832.02 | 48.58 | 87.53
30 | Cc1nc(Nc2ncc(C(=O)Nc3c(C)cccc3Cl)s2)cc(N2CCN(CCO)CC2)n1 [Dasatinib Monohydrate] | 410.49 | 74.63 | 134.47
31 | O=C1C=CC(=O)c2c(O)cccc21 [Juglone] | 894.51 | 44.72 | 80.57
32 | CNC(=O)c1cc(Oc2ccc(NC(=O)Nc3ccc(Cl)c(C(F)(F)F)c3)cc2)ccn1 [Sorafenib] | 932.25 | 42.39 | 76.37
33 | COc1ccc(C(=O)O)cc1OC [Veratric acid] | 937.88 | 42.04 | 75.74
34 | COc1cc(C=O)ccc1OC(C)=O [Acetylvanillin] | 979.34 | 39.48 | 71.13
35 | CCc1ccc(CCOc2ccc(CC3SC(=O)NC3=O)cc2)nc1 (stereo not drawn) [Pioglitazone] | 847.16 | 47.65 | 85.84
36 | CCC12C=CCN3CC[C@@]4(c5ccc(OC)cc5N(C)[C@H]4[C@@](O)(C(=O)OC)[C@@H]1OC(C)=O)[C@@H]32 (stereo partly drawn) [Vindoline] | 930.98 | 42.46 | 76.51
37 | COc1ccc(C=O)cc1OC [Veratraldehyde] | 887.33 | 45.16 | 81.37
